# Data published in PMC7672604, “Design, Synthesis, Molecular Docking, Antiapoptotic and Caspase-3 Inhibition of New 1,2,3-Triazole/Bis-2(1H)-Quinolinone Hybrids” (Molecules, 2020).
# Values joined by “and” are separate entries in the source; they are usually repeats but may differ in a detail not shown here. Identical values can stand only once.
# Experiments:
# testis of I/R rats [1] = assay: Testicular MDA in testis of I/R rats; type: in vivo; conditions: i.p. 1 h before ischemia, dose equivalent to 30 mg NAC, mean ± S.E.M, n=6
# Protocol: (§1) This section describes the methods used in the investigation of the antiapoptotic effect of the novel compounds 6a–g then supported by further histological and molecular docking studies. The antiapoptotic effect of 6a–g was evaluated through evaluation of decreasing tissue damage induced by I/R in the testis of rats in a dose equivalent to 30 mg N-acetylcysteine (NAC) as an antiapoptotic reference. The rats were subdivided into sham, I/R, NAC and treated with tested compounds groups, each group comprises of 6 rats (weighing 140–150 g). The targeted compounds 6a–g were administrated intra-peritoneal (i.p.) an hour before ischemia, which lasted for (0.5 h) then reperfusion (1 h) followed by cutting the organ (Figure 5). Different biomarkers concentrations were measured in serum to detect testis injury due to ischemia/reperfusion (I/R).
# (§2) During the long testicular torsion, oxidation damage affects the testis by the production of the reactive oxygen species (ROS). Excessive generation of the ROS interacts with lipids, proteins, and nucleic acids, which has an adverse effect on cell function and damage. The testis has high cell metabolism such that excessive ROS production weakens antioxidant capacity. Malondialdehyde (MDA) is the end product of lipid peroxidation and increased MDA level has an adverse effect on sperm fertility. Furthermore, total antioxidant capacity (TAC) is the measure of the number of free radicals scavenged by a test solution, being used to evaluate the antioxidant capacity of biological samples [55]. The data collected in Table S3 (Supplementary Materials) have identified that there was a significant increase in testicular MDA with a significant decrease in testicular TAC in the I/R group as well as compounds 6d and 6f when compared to sham control and NAC groups. These findings indicate that both 6d and 6f are the worst antiapoptotic compounds compound amongst all the synthesized compounds.
# TAC was assessed by the colorimetric technique using commercial kits (El-Minia, Egypt) (See Supplementary Materials). Testicular MDA, an index of lipid peroxidation, was determined by using 1,1,3,3-tetramethoxypropane as standard (See Supplementary Materials).
# testis of I/R rats [2] = assay: TNFα in testis of I/R rats (ELISA); type: in vivo; conditions: i.p. 1 h before ischemia, dose equivalent to 30 mg NAC, mean ± S.E.M, n=6
# Protocol: as §1
# It was reported that excessive apoptosis in the testis could damage the Leydig cells and apparent decline in serum testosterone levels. Furthermore, excessive apoptosis of Leydig cells results in decreased testosterone. The assays of the apoptotic biomarkers (testicular testosterone and TNFα) were done in comparison with the sham and NAC treated group and the results were outlined in Table S4 (Supplementary Materials).
# (§3) TNF-α was measured by ELISA kit (Elabscience, Houston, TX, USA). Caspase-3 was measured by ELISA kit Cusabio, Houston, TX, USA (See Supplementary Materials). Testosterone concentration in testicular samples was determined by the ELISA kit (“DRG”, Marburg, Germany) (See Supplementary Materials).
# testis of I/R rats [3] = assay: Testicular TAC in testis of I/R rats; type: in vivo; conditions: i.p. 1 h before ischemia, dose equivalent to 30 mg NAC, mean ± S.E.M, n=6
# Protocol: as §1, §2
# TAC was assessed by the colorimetric technique using commercial kits (El-Minia, Egypt) (See Supplementary Materials). Testicular MDA, an index of lipid peroxidation, was determined by using 1,1,3,3-tetramethoxypropane as standard (See Supplementary Materials). […]
# 1.3.Determination of Total Antioxidant Capacity (Testicular tissue)
# Free radicals or reactive oxygen species (ROS) are produced during biochemical redox reactions as part
# of normal physiological cell metabolism (protection from infectious organisms) and as a response to
# environmental factors such as UV light, cigarette smoke, environmental pollutants, and g-radiation. Once
# formed, ROS attack cellular components causing damage to lipids, proteins, and DNA which can initiate
# Antioxidants in the sample reduce dark blue-green colored ABTS radical to colorless reduced ABTS
# form. The change of absorbance at 660 nm is related with total antioxidant level of the sample. The assay
# is calibrated with a stable antioxidant standard solution which is traditionally named as Trolox
# Equivalent that is a vitamin E analog.
# The determination of the antioxidative capacity is performed by the reaction of antioxidants in the
# sample with a defined amount of exogenously provide hydrogen peroxide (H2O2) The antioxidants in the
# sample eliminate a certain amount of the provided hydrogen peroxide. The residual H2O2 is determined
# (1 picture or pasted object on this page, not shown here)
# colorimetrically by an enzymatic reaction which involves the conversion of 3,5,dichloro–2–hydroxy
# benzensulphonate to a colored product.
# * Dilute R11000 times immediately before use (10 μl R1 + 10 ml d. Water mix Discard after use.
# *Working Reagent: mix equal volumes of R2 and R3 immediately before use.
# *Dilute sample if necessary
# Total Antioxidant concentration […]
# caspase-3 = assay: Caspase-3 level in serum of testicular I/R rats (ELISA); type: in vivo; conditions: mean ± S.E.M, n=6
# Protocol: as §1
# […], implicating a potential role in drug screening efforts. Therefore, we studied the mechanism of the caspase-3 inhibition activity. Caspase-3 was assayed in the serum of rats treated with 6a–g in comparison with sham and the NAC treated group, as shown in Table S5 (Supplementary Materials).
# as §3
SMILES,Testicular MDA (testis of I/R rats [1]),TNF-α (testis of I/R rats [2]),Testicular TAC (testis of I/R rats [3]),Caspase-3 level (caspase-3),melting point
"CC(=O)N[C@@H](CS)C(=O)O [NAC, N-acetylcysteine, reference compound]",67.58 nmol/g tissue and 67.58±3.76 nmol/g tissue,93.39 ± 4.59 pg/mL,4.45 mmol/g tissue and 4.45±0.40 mmol/g tissue,2.54 ± 0.22 ng/mL,
"COc1ccc2[nH]c(=O)cc(-n3cc(COc4cc(=O)[nH]c5ccccc45)nn3)c2c1 [6c, 6-Methoxy-4-(4-(((2-oxo-1,2-dihydroquinolin-4-yl)oxy)methyl)-1H-1,2,3-triazol-1-yl)-quinolin-2(1H)-one]",64.93±4.50 nmol/g tissue,106.70 ± 4.75 pg/mL,4.78±0.39 mmol/g tissue,2.39 ± 0.23 ng/mL,295 to 297 °C
"Cc1ccc2[nH]c(=O)cc(OCc3cn(-c4cc(=O)[nH]c5ccc(C)cc45)nn3)c2c1 [6f, 6-Methyl-4-((1-(6-methyl-2-oxo-1,2-dihydroquinolin-4-yl)-1H-1,2,3-triazol-4-yl)meth-oxy)quinolin-2(1H)-one]",117.00±3.46 nmol/g tissue,237.90 ± 4.52 pg/mL,1.73±0.25 mmol/g tissue,16.34 ± 1.49 ng/mL,270 to 272 °C
"COc1ccc2[nH]c(=O)cc(OCc3cn(-c4cc(=O)[nH]c5ccccc45)nn3)c2c1 [6g, 6-Methoxy-4-((1-(2-oxo-1,2-dihydroquinolin-4-yl)-1H-1,2,3-triazol-4-yl)methoxy)quinolin-2-(1H)-one]",89.59±5.58 nmol/g tissue,192.00 ± 6.31 pg/mL,3.34±0.21 mmol/g tissue,6.99 ± 0.24 ng/mL,300 to 302 °C
"Cc1ccc2[nH]c(=O)cc(OCc3cn(-c4cc(=O)[nH]c5ccccc45)nn3)c2c1 [6e, 6-Methyl-4-((1-(2-oxo-1,2-dihydroquinolin-4-yl)-1H-1,2,3-triazol-4-yl)methoxy)quinolin-2(1H)-one]",85.00±6.46 nmol/g tissue,188.90 ± 6.82 pg/mL,3.34±0.25 mmol/g tissue,7.86 ± 0.28 ng/mL,272 to 274 °C
"Cn1c(=O)cc(-n2cc(COc3cc(=O)[nH]c4ccccc34)nn2)c2ccccc21 [6d, 1-Methyl-4-(4-(((2-oxo-1,2-dihydroquinolin-4-yl)oxy)methyl)-1H-1,2,3-triazol-1-yl)quinolin-2(1H)-one]",117.50 ± 3.71 nmol/g tissue,234.50 ± 6.15 pg/mL,1.89±0.29 mmol/g tissue,15.28 ± 1.51 ng/mL,285 to 287 °C
